Assay [1] has as its system amphetamine-induced hyperlocomotion in ICR mice. In words: Open field locomotor activity, amphetamine-induced hyperlocomotion. As to conditions: amphetamine 3 mg/kg i.p.; p = 0.0008 vs control; n = 7–8. It counts as in vivo, male albino ICR mice.
In assay [2] the test system is brain monoamine levels, amphetamine-treated mice. In words: Brain monoamines and metabolites, amphetamine-treated mice (UHPLC-TOF-MS). It counts as in vivo, male albino ICR mice. The conditions noted are these: amphetamine 3 mg/kg i.p.
Assay [3] has as its system PCP-induced hyperlocomotion in ICR mice. As to the kind of experiment: Open field locomotor activity, phencyclidine-induced hyperlocomotion. It counts as in vivo, male albino ICR mice. The conditions noted are these: PCP 5 mg/kg i.p.; p < 0.0001 vs control; n = 7–8.
Another assay has as its target 5-HT2A receptor. As to conditions: cited from earlier work. Here is the method: (§1) The aims of the present studies were: to test whether lunasin would show an influence on the dopaminergic system after intranasal administration, and to examine the effect(s) of lunasin on serotonin and glutamatergic systems, which could play an essential role in antipsychoti ... || The binding assay was performed by Eurofins Cerep (France) according to Bryant et al., 1996 [15]. Briefly, the binding of lunasin to 5-HT2A and 5-HT2C receptors was estimated on its ability to displace the specific binding of [^125I]DOI on cell membrane suspensions of HEK-293 cells expressing human recombinant 5-HT2A and 5-HT2C receptors. The radioligand [^125I]DOI has high affinity for 5-HT2A (Kd: 0.3 nM) and 5-HT2C (Kd: 0.9 nM) receptors. Lunasin was tested at concentrations of 1, 10 and 100 µM. The results were expressed as a percent of radioligand specific binding (n = 2).

The target in the next assay is 5-HT2C receptor. The conditions noted are these: cited from earlier work. Here is the method:
as §1

Assay [4] relates to DOI-induced hyperlocomotion in ICR mice. In words: Open field locomotor activity, DOI-induced hyperlocomotion. It is filed as in vivo, male albino ICR mice. The conditions noted are these: DOI 3 mg/kg i.p.; p = 0.0033 vs control; n = 7–8.
Assay [5] has as its system brain monoamine levels, DOI-treated mice. In words: Brain monoamines and metabolites, DOI-treated mice (UHPLC-TOF-MS). It counts as in vivo, male albino ICR mice. As to conditions: DOI 3 mg/kg i.p.
The next assay concerns hyper-locomotion. As to conditions: published data; cited from earlier work. Here is the method: The selected DOI dose in our behavioural studies was 3 mg/kg, which according to published data, corresponds to the dose range (0.625-5.0 mg/kg) that induces hyper-locomotion. […] These altered parameters ...
The mark [6] stands for this setting: radioligand affinity quoted in method, Eurofins Cerep, ref Bryant et al., 1996 [15].
Setting [7] is: comparison for lunasin, abstract, source not printed there.

SMILES strings stand for the structures. “Also recorded” adds a separate entry of the source.

With `C[C@H](N)Cc1ccccc1` [Amphetamine, d-amphetamine, reference compound], in assay [1], the “increase in total walked distance versus control” value is recorded as “approximately 2 -fold”. In addition, the “brain DOPAC concentration” value in assay [2] is “Neither lunasin per se nor amphetamine changed the DOPAC concentration”. In assay [2] (p < 0.0001), the “brain 5-HIAA level” value is “increased brain serotonin and its metabolite 5-HIAA levels”; the “brain dopamine level” value is reported as “markedly increased the dopamine level”; the “brain noradrenaline level” value is on record as “augmented by amphetamine”; the “brain serotonin level” value was “increased brain serotonin and its metabolite 5-HIAA levels”. In assay [2] (p = 0.0079), the “brain HVA level” value is “increased by amphetamine”.

Turning to `Cl.c1ccc(C2(N3CCCCC3)CCCCC2)cc1` [PCP, 1-(1-phenylcyclohexyl)piperidine hydrochloride, reference compound], the “effect on locomotion versus control” value in assay [3] was “induced hyperlocomotion”.

With `COc1cc(CC(C)N)c(OC)cc1I` (centres unmarked) [[125I]DOI], the Kd (in general, a measure of binding affinity in units of concentration) is 0.3 nM at 5-HT2A receptor (setting [6]) and 0.9 nM at 5-HT2C receptor (setting [6]).

As for `COc1cc(CC(C)N)c(OC)cc1I` (centres unmarked) [DOI, 1-(2,5-dimethoxy-4-iodophenyl)-2-aminopropane, reference compound], the “effect on locomotion versus control” value in assay [4] was “induced hyperactivity”. Moreover, in assay [5], the “brain 5-HIAA level” value was “up-regulated levels of serotonin and 5-HIAA; also recorded: considerable elevation of brain levels of serotonin and its metabolite 5-HIAA”; the “brain dopamine concentration” value is reported as “did not change dopamine brain concentrations; also recorded: did not change the dopamine concentration”; the “brain serotonin level” value was “up-regulated levels of serotonin and 5-HIAA; also recorded: considerable elevation of brain levels of serotonin and its metabolite 5-HIAA”. For the same molecule, the “brain DOPAC concentration” value in assay [5] (p < 0.001) is “elevated; also recorded: increasing DOPAC levels”. Also, the “brain noradrenaline level” value in assay [5] (p < 0.05) is “decreased by DOI treatment; also recorded: lowered those of HVA and noradrenaline”. The “brain HVA level” value in assay [5] (p = 0.0022) is “decreased by DOI treatment; also recorded: lowered those of HVA and noradrenaline”. Moreover, the “receptor affinity, concentration range” value in the assay on 5-HT2A receptor (setting [7]) is “nM concentrations”. Moreover, the “receptor affinity, concentration range” value in the assay on 5-HT2C receptor (setting [7]) is given as “nM concentrations”. Besides, in the assay with hyper-locomotion, the “dose range that induces hyper-locomotion” value was 0.625 to 5.0 mg/kg.

Values taken from article PMC6681393, “Intra-Nasally Administered Oligopeptide Lunasin Acts as a Possible Anti-Psychotic Agent in Mice Models” (Medicina, 2019).
